The record followed here is ChEMBL document CHEMBL1155509, “3-Indolyl sultams as selective CRTh2 antagonists” (Bioorg Med Chem Lett, 2010).

For assay [1], the target named is T1, Prostaglandin D2 receptor 2 (Homo sapiens, UniProt Q9Y5Y4).
T1 sequence (Q9Y5Y4 whole entry): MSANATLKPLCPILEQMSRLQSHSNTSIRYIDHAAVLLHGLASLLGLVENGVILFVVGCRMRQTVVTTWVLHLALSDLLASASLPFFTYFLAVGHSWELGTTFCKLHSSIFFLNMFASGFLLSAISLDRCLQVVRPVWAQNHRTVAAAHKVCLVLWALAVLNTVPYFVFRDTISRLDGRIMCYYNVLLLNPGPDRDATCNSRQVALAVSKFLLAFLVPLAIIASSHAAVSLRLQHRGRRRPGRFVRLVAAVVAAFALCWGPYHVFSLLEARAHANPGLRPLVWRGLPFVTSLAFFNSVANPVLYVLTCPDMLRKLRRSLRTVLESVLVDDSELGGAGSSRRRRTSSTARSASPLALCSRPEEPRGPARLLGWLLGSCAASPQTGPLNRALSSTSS
The assay is described as follows: Binding affinity to human prostaglandin D2 receptor by cell based radioligand displacement assay.

Assay [2] has as its target T2, Prostaglandin D2 receptor (Homo sapiens) (UniProt Q13258).
T2 sequence (whole entry): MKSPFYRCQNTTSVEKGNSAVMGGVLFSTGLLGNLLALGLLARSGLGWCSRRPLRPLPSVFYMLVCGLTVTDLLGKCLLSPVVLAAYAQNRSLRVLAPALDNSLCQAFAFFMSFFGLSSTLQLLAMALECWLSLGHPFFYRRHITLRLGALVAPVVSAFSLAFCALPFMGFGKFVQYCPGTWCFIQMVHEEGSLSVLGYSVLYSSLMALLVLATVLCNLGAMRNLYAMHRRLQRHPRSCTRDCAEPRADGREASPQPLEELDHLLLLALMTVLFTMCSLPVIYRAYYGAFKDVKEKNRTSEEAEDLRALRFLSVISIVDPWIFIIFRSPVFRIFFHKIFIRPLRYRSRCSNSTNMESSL
The assay is described as follows: Binding affinity to human prostaglandin D1 receptor at 10 uM by radioligand displacement assay.

Assay [3] has as its target T3, Thromboxane A2 receptor (Homo sapiens) (UniProt P21731).
T3 sequence (whole entry): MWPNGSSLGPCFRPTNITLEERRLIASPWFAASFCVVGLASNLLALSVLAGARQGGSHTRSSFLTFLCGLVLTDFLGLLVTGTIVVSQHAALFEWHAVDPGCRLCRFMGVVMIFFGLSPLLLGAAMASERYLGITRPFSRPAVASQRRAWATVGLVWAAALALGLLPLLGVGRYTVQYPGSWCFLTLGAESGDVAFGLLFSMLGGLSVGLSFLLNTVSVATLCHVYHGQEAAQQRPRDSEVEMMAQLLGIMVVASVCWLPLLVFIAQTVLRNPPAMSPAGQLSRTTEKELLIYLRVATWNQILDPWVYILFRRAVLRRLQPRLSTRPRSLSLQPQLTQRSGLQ
The assay can be described thus: Binding affinity to human thromboxane A2 receptor at 10 uM by radioligand displacement assay. A general note: Displacement assays read how much labelled ligand stays bound in the presence of the test substance.

In assay [4] the target is T4, Thromboxane A2 receptor (Homo sapiens, UniProt P21731).
T4 sequence (P21731 whole entry): T3 sequence (whole entry)
The assay is described as follows: Binding affinity to human thromboxane A2 receptor by radioligand displacement assay.

The target in assay [5] is T1, Prostaglandin D2 receptor 2. The assay can be described thus: Antagonist activity at human prostaglandin D2 receptor assessed as inhibition of PGD2-induced receptor activation by cell based FLIPR assay. Type of assay: functional.

One may read the Ki as the equilibrium dissociation constant of an inhibitor or competing ligand from its target. In assay [1], `N#Cc1ccc2c(c1)c(C1NS(=O)(=O)c3ccccc31)cn2CC(=O)O` (racemic) gave a Ki of 2000 nM.

For `Cc1c(C2NS(=O)(=O)c3ccccc32)c2cc(Cl)ccc2n1CC(=O)O` (racemic), the affinity in assay [1] corresponds to a Ki of 690 nM. In the case of `Cc1noc(C)c1CN1C(C)(c2c(C)n(CC(=O)O)c3ccccc23)c2ccccc2S1(=O)=O` (racemic), the Ki in assay [1] was 38 nM. On the same count and under the same terms, under `Cc1c(C2c3ccccc3S(=O)(=O)N2CCO)c2ccccc2n1CC(=O)O` (racemic) stands 1400 nM. The same measure, in the same setting: under `O=C(O)Cn1cc(C2NS(=O)(=O)c3ccccc32)c2ccccc21` (racemic) stands 9200 nM; under `Cc1noc(C)c1CN1C(c2cn(CC(=O)O)c3ccccc23)c2ccccc2S1(=O)=O` (racemic), 18 nM. Still for that read-out and setting: with `Cc1c(C2c3ccccc3S(=O)(=O)N2CCC(C)C)c2ccccc2n1CC(=O)O` (racemic) the figure was 560 nM. Take `Cc1noc(-c2ccccc2)c1CN1C(c2c(C)n(CC(=O)O)c3ccccc23)c2ccccc2S1(=O)=O` (racemic): in assay [1], the Ki amounted to 13 nM. For `O=C(O)Cn1cc(C2c3ccccc3S(=O)(=O)N2CCc2ccccc2)c2ccccc21` (racemic), the Ki in assay [1] was 630 nM. Same read-out and setting: with `O=C(O)Cn1cc(C2NS(=O)(=O)c3ccccc32)c2cc(Cl)ccc21` (racemic) the figure was 2900 nM.

Regarding `Cc1c(C2c3ccccc3S(=O)(=O)N2c2ccccc2)c2ccccc2n1CC(=O)O` (racemic), in assay [1], the Ki was determined as 480 nM. Take `CC(C)CCN1C(c2cn(CC(=O)O)c3ccccc23)c2ccccc2S1(=O)=O` (racemic): the affinity in assay [1], expressed as Ki, was 2300 nM.

In turn, `Cc1ccc2c(c1)c(C1NS(=O)(=O)c3ccccc31)c(C)n2CC(=O)O` (racemic) came in with a Ki in assay [1] of 1500 nM. The compound `Cc1c(C2NS(=O)(=O)c3ccccc32)c2cc(F)ccc2n1CC(=O)O` (racemic) registered a Ki in assay [1] of 430 nM. A word on the inhibition: it is the drop in the measured response relative to a control, in per cent. Higher therefore signals strong suppression. Compound `Cc1noc(C)c1CN1C(c2c(C)n(CC(=O)O)c3ccc(Cl)cc23)c2ccccc2S1(=O)=O` (racemic) returned a Ki in assay [1] of 8 nM. Besides, the inhibition in assay [2] was found to be 15%; in assay [3], 0%.

With `Cc1noc(C)c1CN1C(c2c(C)n(CC(=O)O)c3ccccc23)CCS1(=O)=O` (racemic), the affinity in assay [1] corresponds to a Ki of 23 nM. For `Cc1c(C2c3ccccc3S(=O)(=O)N2CCOc2ccc(Cl)cc2)c2ccccc2n1CC(=O)O` (racemic), the values for the Ki in assay [1] and in assay [4] were 35 nM and 3400 nM, respectively. The compound also had an inhibition in assay [2] of 28%. Turning to `Cc1c(C2c3ccccc3S(=O)(=O)N2CCOc2ccccc2)c2ccccc2n1CC(=O)O` (racemic), the results for the inhibitory constant (Ki) in assay [1] and in assay [4] were 29 nM and 7800 nM, respectively. Also, the inhibition in assay [2] came to 0%. `Cc1c(C2c3ccccc3S(=O)(=O)N2CCCOc2ccccc2)c2ccccc2n1CC(=O)O` (racemic): the affinity in assay [1], expressed as Ki, was 1400 nM. As for `Cc1noc(C)c1CN1C(c2c(C)n(CC(=O)O)c3ccccc23)c2ccccc2S1(=O)=O` (racemic), the inhibition constant Ki in assay [1] was 12 nM; in assay [5], 28 nM. For the same compound, the inhibition in assay [2] and in assay [3] was 0% in each case.

In assay [1], `O=C(O)Cn1cc(C2c3ccccc3S(=O)(=O)N2Cc2ccccc2)c2ccccc21` (racemic) had a Ki of 1100 nM. The same measure, in the same setting: with `Cc1c(C2c3ccccc3S(=O)(=O)N2C(C)C)c2ccccc2n1CC(=O)O` (racemic) the figure was 920 nM; with `Cc1ccc2c(c1)c(C1NS(=O)(=O)c3ccccc31)cn2CC(=O)O` (racemic), 2900 nM; with `CN1C(c2cn(CC(=O)O)c3ccccc23)c2ccccc2S1(=O)=O` (racemic), 8100 nM.

Regarding `Cc1c(C2NS(=O)(=O)c3ccccc32)c2ccccc2n1CC(=O)O` (racemic), the Ki in assay [1] was 2800 nM. Still for that read-out and setting: under `Cc1c(C2c3ccccc3S(=O)(=O)N2CCc2ccccc2)c2ccccc2n1CC(=O)O` (racemic) stands 220 nM.
